# Literature values in patent publication US8623418B2, “Pharmaceutical composition” (Alpharma Pharmaceuticals LLC, priority 2007, dated 2014).
# Conditions: in vivo
smiles,measurement,value
O=C1CC[C@@]2(O)[C@H]3Cc4ccc(O)c5c4[C@@]2(CCN3CC2CC2)[C@H]1O5 [naltrexone],parent drug and metabolites excreted by the kidney,53-79 % of the dose
